Measurements: US12006330B2, “Substituted macrocyclic compounds and related methods of treatment” (Alkermes, Inc., priority 2020, dated 2024)
pEC50: −log10 of the molar value.

Target: T1, human orexin-2 receptor (OX2R) (Homo sapiens, UniProt O43614)
T1 construct: expressed in transfected cells
T1 sequence (O43614 1-444): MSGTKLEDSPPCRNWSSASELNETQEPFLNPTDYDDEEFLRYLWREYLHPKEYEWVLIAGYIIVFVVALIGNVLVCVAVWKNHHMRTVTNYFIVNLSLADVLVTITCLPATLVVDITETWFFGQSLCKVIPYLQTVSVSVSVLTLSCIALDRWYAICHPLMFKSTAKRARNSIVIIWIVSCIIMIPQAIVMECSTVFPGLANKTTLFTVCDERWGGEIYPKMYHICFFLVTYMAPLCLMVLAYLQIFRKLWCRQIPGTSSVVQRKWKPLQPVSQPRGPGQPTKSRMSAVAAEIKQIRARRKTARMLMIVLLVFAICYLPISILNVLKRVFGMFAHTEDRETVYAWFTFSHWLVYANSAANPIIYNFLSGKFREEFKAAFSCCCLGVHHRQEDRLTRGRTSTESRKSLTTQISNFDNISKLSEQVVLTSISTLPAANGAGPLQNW
Experiment: Human OX2R IP1 assay
Assay type: cell-based
Details: T-Rex CHO cells stably overexpressing human OX2R; IP1 accumulation; 1 hr at 37 degrees C; mean EC50
Protocol: T-Rex CHO cells stably overexpressing the human orexin-2 receptor (OX2R) were induced overnight with 1 μg/mL of doxycycline in a T225 flask. 24 hours post induction, cells were lifted with accutase and plated into a 384-well proxy plate at 30,000 cells/well. Cells were then treated with different test compounds in 1× stimulation buffer containing 10 mM Hepes, 1 mM CaCl2), 0.5 mM MgCl2, 4.2 mM KCl, 146 mM NaCl, 5.5 mM glucose, and 50 mM LiCl, pH 7.4, for 1 hr at 37 degrees C. Following incubation, the reaction was terminated by the addition of detection mix, which is composed of IP1-d2 and anti-IP1-cryptate diluted in lysis buffer as well as 1× stimulation buffer. The plates were allowed to incubate for 1 hour at room temperature and were then read in the EnVision® multimode plate reader, measuring inositol phosphate levels.
Cisbio IP1 is a cell-based functional assay quantifying the accumulation of inositol monophosphate (IP), a metabolite released as a result of orexin 2 receptor activation through the phospholipase C-Gq signaling pathway. This is a competitive immunoassay in which the IP1 produced by the cells upon receptor activation competes with the IP1 analog coupled to the d2 fluorophore (acceptor) for binding to an anti-IP1 monoclonal antibody labeled with Eu cryptate (donor). The measured HTRF-FRET based signal is inversely proportional to the IP1 concentration produced.
The EC50 values reported in Table 2 were obtained according to the human OX2R IP1 assay described above. Data are the mean EC50 values S.E.M. Reference Compound A is methyl (2R,3S)-3-((methylsulfonyl)amino)-2-(((cis-4-phenylcyclohexyl)oxy)methyl)-piperidine-1-carboxylate (Example 5 of PCT publication No. WO2017/135306). Reference Compound B is N-((2S,3S)-1-(2-hydroxy-2-methylpropanoyl)-2-((2,3′,5′-trifluorobiphenyl-3-yl)methyl)pyrrolidin-3-yl)methanesulfonamide (Example 483 of PCT publication No. WO2019/027058).

Row | Compound | pEC50
1 | CC(C)S(=O)(=O)N[C@H]1CCCN2CCOc3ncccc3[C@H]3CC[C@H](CC3)OC[C@@H]12 (stereo in doubt) [Compound 64] | < 6.00
2 | CC(C)(C)S(=O)(=O)N[C@H]1CCCN2CCOc3ccccc3[C@H]3CC[C@H](CC3)OC[C@@H]12 (stereo in doubt) [Compound 56] | < 6.00
3 | O=C1COc2nnccc2[C@H]2CC[C@H](CC2)OC[C@H]2[C@@H](NS(=O)(=O)C3CC3)CCCN12 (stereo in doubt) [Compound 67] | 6.00 to 8.00
4 | O=S(=O)(N[C@H]1CCCN2CCOc3ccccc3[C@H]3CC[C@H](CC3)OC[C@@H]12)C1CCC1 (stereo in doubt) [Compound 57] | 6.00 to 8.00
5 | Cc1ncnc2c1[C@H]1CC[C@H](CC1)OC[C@H]1[C@@H](NS(C)(=O)=O)CCN1C(=O)CO2 (stereo in doubt) [Compound 82] | 6.00 to 8.00
6 | CC(C)(C)S(=O)(=O)N[C@H]1CCCN2C(=O)COc3ccccc3[C@H]3CC[C@H](CC3)OC[C@@H]12 (stereo in doubt) [Compound 44] | 6.00 to 8.00
7 | Cc1ccc2c(c1)[C@H]1CC[C@H](CC1)OC[C@H]1[C@@H](NS(C)(=O)=O)CCCN1CCO2 (stereo in doubt) [Compound 54] | 6.00 to 8.00
8 | CCS(=O)(=O)N[C@H]1CCCN2CCOc3ccccc3[C@H]3CC[C@H](CC3)OC[C@@H]12 (stereo in doubt) [Compound 53] | < 6.00
9 | C[C@H]1C[C@H](NS(C)(=O)=O)C2CO[C@H]3CC[C@H](CC3)c3ccccc3OCC(=O)N21 (stereo in doubt) [Compound 111] | 6.00 to 8.00
10 | O=S(=O)(CC1CCC1)N[C@H]1CCCN2CCOc3ccccc3[C@H]3CC[C@H](CC3)OC[C@@H]12 (stereo in doubt) [Compound 55] | < 6.00
11 | O=C1COc2ncncc2[C@H]2CC[C@H](CC2)OC[C@H]2[C@@H](NS(=O)(=O)C3CC3)CCCN12 (stereo in doubt) [Compound 97] | 6.00 to 8.00
12 | Cc1cccc2c1OCCN1CCC[C@H](NS(C)(=O)=O)[C@@H]1CO[C@H]1CC[C@@H]2CC1 (stereo in doubt) [Compound 49] | < 6.00
13 | O=S(=O)(CC1CC1)N[C@H]1CCCN2CCOc3ccccc3[C@H]3CC[C@H](CC3)OC[C@@H]12 (stereo in doubt) [Compound 59] | 6.00 to 8.00
14 | Cc1ncnc2c1[C@H]1CC[C@H](CC1)OC[C@H]1[C@@H](NS(=O)(=O)C(C)C)CCCN1C(=O)CO2 (stereo in doubt) [Compound 69] | > 8.00
15 | Cc1ccnc2c1[C@H]1CC[C@H](CC1)OC[C@H]1[C@@H](NS(=O)(=O)C(C)C)CCCN1C(=O)CO2 (stereo in doubt) [Compound 10] | > 8.00
16 | Cc1ccc2c(c1C)[C@H]1CC[C@H](CC1)OC[C@H]1[C@@H](NS(=O)(=O)C3CC3)CCCN1C(=O)CO2 (stereo in doubt) [Compound 77] | > 8.00
17 | Cc1ccnc2c1[C@H]1CC[C@H](CC1)OC[C@H]1[C@@H](NS(=O)(=O)C3CC3)CCN1C(=O)CO2 (stereo in doubt) [Compound 92] | > 8.00
18 | Cc1ncnc2c1[C@H]1CC[C@H](CC1)OC[C@H]1[C@@H](NS(=O)(=O)C(C)C)CCN1C(=O)CO2 (stereo in doubt) [Compound 86] | 6.00 to 8.00
19 | CS(=O)(=O)N[C@H]1CCCN2C(=O)COc3ccc(C#N)cc3[C@H]3CC[C@H](CC3)OC[C@@H]12 (stereo in doubt) [Compound 46] | 6.00 to 8.00
20 | Cc1ccc2c(c1)OCCN1CCC[C@H](NS(C)(=O)=O)[C@@H]1CO[C@H]1CC[C@@H]2CC1 (stereo in doubt) [Compound 50] | < 6.00
21 | Cc1ccc2c(c1)[C@H]1CC[C@H](CC1)OC[C@H]1[C@@H](NS(=O)(=O)C(C)C)CCCN1C(=O)CO2 (stereo in doubt) [Compound 18] | > 8.00
22 | CC1(S(=O)(=O)N[C@H]2CCCN3CCOc4ccccc4[C@H]4CC[C@H](CC4)OC[C@@H]23)CC1 (stereo in doubt) [Compound 58] | 6.00 to 8.00
23 | Cc1c(Cl)ccc2c1[C@H]1CC[C@H](CC1)OC[C@H]1[C@@H](NS(C)(=O)=O)CCCN1C(=O)CO2 (stereo in doubt) [Compound 31] | > 8.00
24 | CS(=O)(=O)N[C@H]1CCCN2C(=O)COc3cc(C#N)ccc3[C@H]3CC[C@H](CC3)OC[C@@H]12 (stereo in doubt) [Compound 47] | 6.00 to 8.00

The next lines start with the values.

Row | pEC50 | Compound
25 | > 8.00 | Cc1cccc2c1[C@H]1CC[C@H](CC1)OC[C@H]1[C@@H](NS(C)(=O)=O)CCCN1C(=O)CO2 (stereo in doubt) [Compound 2]
26 | > 8.00 | O=C1COc2ncccc2[C@H]2CC[C@H](CC2)OC[C@H]2[C@@H](NS(=O)(=O)C3CC3)CCN12 (stereo in doubt) [Compound 107]
27 | > 8.00 | CC(C)S(=O)(=O)N[C@H]1CCN2C(=O)COc3ccccc3[C@H]3CC[C@H](CC3)OC[C@@H]12 (stereo in doubt) [Compound 106]
28 | > 8.00 | CC(C)S(=O)(=O)N[C@H]1CCN2C(=O)COc3ncccc3[C@H]3CC[C@H](CC3)OC[C@@H]12 (stereo in doubt) [Compound 101]
29 | > 8.00 | CC(C)S(=O)(=O)N[C@H]1CCCN2C(=O)COc3ccc(Cl)cc3[C@H]3CC[C@H](CC3)OC[C@@H]12 (stereo in doubt) [Compound 26]
30 | > 8.00 | Cc1ccnc2c1[C@H]1CC[C@H](CC1)OC[C@H]1[C@@H](NS(C)(=O)=O)CCCN1C(=O)CO2 (stereo in doubt) [Compound 12]
31 | > 8.00 | O=C1COc2ccccc2[C@H]2CC[C@H](CC2)OC[C@H]2[C@@H](NS(=O)(=O)C3CC3)CCN12 (stereo in doubt) [Compound 105]
32 | > 8.00 | Cc1cnc2c(c1)[C@H]1CC[C@H](CC1)OC[C@H]1[C@@H](NS(=O)(=O)C(C)C)CCCN1C(=O)CO2 (stereo in doubt) [Compound 34]
33 | > 8.00 | Cc1ccnc2c1[C@H]1CC[C@H](CC1)OC[C@H]1[C@@H](NS(=O)(=O)C3CC3)CCCN1C(=O)CO2 (stereo in doubt) [Compound 62]
34 | > 8.00 | Cc1c(Cl)ccc2c1[C@H]1CC[C@H](CC1)OC[C@H]1[C@@H](NS(=O)(=O)C(C)C)CCCN1C(=O)CO2 (stereo in doubt) [Compound 28]
35 | > 8.00 | O=C1COc2ccccc2[C@H]2CC[C@H](CC2)OC[C@H]2[C@@H](NS(=O)(=O)CC3CC3)CCCN12 (stereo in doubt) [Compound 48]
36 | > 8.00 | O=C1COc2ccccc2[C@H]2CC[C@H](CC2)OC[C@H]2[C@@H](NS(=O)(=O)C(F)F)CCCN12 (stereo in doubt) [Compound 7]
37 | > 8.00 | CC(C)S(=O)(=O)N[C@H]1CCCN2C(=O)COc3ncccc3[C@H]3CC[C@H](CC3)OC[C@@H]12 (stereo in doubt) [Compound 15]
38 | > 8.00 | O=C1COc2cccc(F)c2[C@H]2CC[C@H](CC2)OC[C@H]2[C@@H](NS(=O)(=O)C3CC3)CCCN12 (stereo in doubt) [Compound 74]
39 | > 8.00 | O=C1COc2ccccc2[C@H]2CC[C@H](CC2)OC[C@H]2[C@@H](NS(=O)(=O)C(F)(F)F)CCCN12 (stereo in doubt) [Compound 11]
40 | > 8.00 | O=C1COc2ccccc2[C@H]2CC[C@H](CC2)OC[C@H]2[C@@H](NS(=O)(=O)C3CCC3)CCCN12 (stereo in doubt) [Compound 42]
41 | > 8.00 | Cc1ccnc2c1[C@H]1CC[C@H](CC1)OC[C@H]1[C@@H](NS(=O)(=O)C3COC3)CCN1C(=O)CO2 (stereo in doubt) [Compound 109]
42 | > 8.00 | O=C1COc2ncccc2[C@H]2CC[C@H](CC2)OCC2[C@@H](NS(=O)(=O)C(F)(F)F)CCN12 (stereo in doubt) [Compound 108]
43 | > 8.00 | O=C1COc2ccccc2[C@H]2CC[C@H](CC2)OC[C@H]2[C@@H](NS(=O)(=O)CCO)CCCN12 (stereo in doubt) [Compound 19]
44 | > 8.00 | Cc1cccc2c1[C@H]1CC[C@H](CC1)OC[C@H]1[C@@H](NS(=O)(=O)C3CC3)CCCN1C(=O)CO2 (stereo in doubt) [Compound 4]
45 | > 8.00 | Cc1cccc2c1[C@H]1CC[C@H](CC1)OC[C@H]1[C@@H](NS(=O)(=O)C(C)C)CCN1C(=O)CO2 (stereo in doubt) [Compound 79]
46 | > 8.00 | O=C1COc2ccccc2[C@H]2CC[C@H](CC2)OC[C@H]2[C@@H](NS(=O)(=O)C3CCCC3)CCCN12 (stereo in doubt) [Compound 33]
